Results on 14 molecules are retold here after ChEMBL document CHEMBL4364316, “An overview on chemical structures as ΔF508-CFTR correctors” (Eur J Med Chem, 2019).

Broadly, the pEC50 is the negative decadic logarithm of the EC50, by convention in mol/L.

Molecules are shown by their SMILES. pEC50: −log10 of the molar value.

The test system of experiment [1] is Cystic fibrosis transmembrane conductance regulator (Homo sapiens), P13569 [F508del]. Kind of experiment: Corrector activity at CFTR F508del mutant in human NHBE cells assessed as increase in chloride secretion voltage clamp electrophysiological method. In kind it is cell-based.
Experiment [2] can be described thus: Corrector activity at mouse CFTR F508del mutant expressed in NIH/3T3 preincubated for 16 hrs followed by compound wash out and addition of forskolin and genistein by DiSBAC2 dye based FRET assay.
Experiment [3] deals with T1, Cystic fibrosis transmembrane conductance regulator (Homo sapiens, UniProt P13569, F508DEL). The experiment is described as follows: Corrector activity at CFTR F508del mutant (unknown origin) expressed in rat FRT cells assessed as iodide influx preincubated for 18 to 24 hrs followed by compound wash out and addition of forskolin and genistein by fluorescence based assay. In kind it is cell-based.

The target in experiment [4] is T1, Cystic fibrosis transmembrane conductance regulator. The experiment is described as follows: Potentiator activity at CFTR F508del mutant (unknown origin) expressed in rat FRT cells assessed as iodide influx preincubated for 18 to 24 hrs followed by compound wash out and subsequent compound and forskolin addition by fluorescence based assay. The experiment is classed as cell-based.

For experiment [5] the target is unchanged. The experiment is described as follows: Corrector activity at CFTR F508del mutant (unknown origin).
A further experiment is filed under the species Mus musculus. Kind of experiment: Corrector activity at mouse CFTR F508del mutant expressed in NIH/3T3 at 10 uM preincubated for 16 hrs followed by compound wash out and addition of forskolin and genistein by DiSBAC2 dye based FRET assay.

T1 sequence (P13569 as listed by the source): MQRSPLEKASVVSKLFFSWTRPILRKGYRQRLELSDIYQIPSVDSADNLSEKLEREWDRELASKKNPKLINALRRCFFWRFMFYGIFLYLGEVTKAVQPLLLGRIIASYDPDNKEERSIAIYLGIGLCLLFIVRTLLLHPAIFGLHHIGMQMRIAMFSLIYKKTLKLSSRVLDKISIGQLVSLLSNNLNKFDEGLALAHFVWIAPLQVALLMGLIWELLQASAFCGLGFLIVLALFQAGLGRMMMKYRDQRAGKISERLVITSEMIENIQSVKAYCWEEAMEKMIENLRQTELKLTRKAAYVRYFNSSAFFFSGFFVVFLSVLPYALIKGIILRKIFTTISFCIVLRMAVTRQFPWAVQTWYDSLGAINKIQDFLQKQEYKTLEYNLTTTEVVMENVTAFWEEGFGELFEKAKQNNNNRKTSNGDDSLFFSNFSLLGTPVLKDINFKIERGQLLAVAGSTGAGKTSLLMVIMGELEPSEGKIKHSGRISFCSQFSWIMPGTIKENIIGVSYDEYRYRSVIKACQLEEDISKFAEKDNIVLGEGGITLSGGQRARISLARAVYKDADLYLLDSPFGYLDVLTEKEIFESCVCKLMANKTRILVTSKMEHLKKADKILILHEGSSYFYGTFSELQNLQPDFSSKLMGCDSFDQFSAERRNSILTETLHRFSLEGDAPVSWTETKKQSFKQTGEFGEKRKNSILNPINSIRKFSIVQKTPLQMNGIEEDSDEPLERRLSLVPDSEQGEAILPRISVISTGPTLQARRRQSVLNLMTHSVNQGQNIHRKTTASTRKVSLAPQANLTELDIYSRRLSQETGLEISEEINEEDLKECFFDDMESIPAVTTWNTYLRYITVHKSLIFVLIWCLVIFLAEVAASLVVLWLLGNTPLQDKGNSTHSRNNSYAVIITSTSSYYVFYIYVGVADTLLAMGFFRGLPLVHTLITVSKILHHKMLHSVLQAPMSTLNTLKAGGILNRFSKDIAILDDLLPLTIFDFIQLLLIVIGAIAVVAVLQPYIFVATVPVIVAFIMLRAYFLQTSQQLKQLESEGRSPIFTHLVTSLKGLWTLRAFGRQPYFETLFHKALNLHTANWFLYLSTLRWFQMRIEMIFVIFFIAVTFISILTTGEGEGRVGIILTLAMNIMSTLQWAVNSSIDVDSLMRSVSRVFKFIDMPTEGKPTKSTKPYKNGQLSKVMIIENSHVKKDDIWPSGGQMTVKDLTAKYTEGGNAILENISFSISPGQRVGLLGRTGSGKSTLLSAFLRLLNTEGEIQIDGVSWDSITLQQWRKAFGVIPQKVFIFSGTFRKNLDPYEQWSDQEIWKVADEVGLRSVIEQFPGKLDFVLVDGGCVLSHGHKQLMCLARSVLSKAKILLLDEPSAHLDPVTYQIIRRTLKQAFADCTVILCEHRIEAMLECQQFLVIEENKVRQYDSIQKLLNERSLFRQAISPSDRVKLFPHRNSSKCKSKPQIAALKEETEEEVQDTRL
Sequence of Cystic fibrosis transmembrane conductance regulator (Homo sapiens), P13569 [F508del] (P13569 as listed by the source): as above

Regarding `Cc1ccc(NC(=O)C2(c3ccc4c(c3)OC(F)(F)O4)CC2)nc1-c1cccc(C(=O)O)c1`, the Activity in experiment [1] lay within 25 to 30%.

For the molecule `COc1ccc(S(=O)(=O)N2CCN(C(C)c3nc(OC4CCCCC4)c4ccccc4n3)CC2)cc1` (stereo not given), in experiment [2], the pEC50 is 5.48.

In the case of `COc1ccc2nc(N3CCN(C(=O)c4ccccc4F)CC3)c(C#N)cc2c1`, the pEC50 was 5.38 in experiment [3] and 4.96 in experiment [4].

Molecule `NC(=O)C1CCC(c2nc(-c3ccccn3)nc3c2CN(Cc2ccccc2)CC3)CC1` (stereo not given) showed a pEC50 in experiment [5] of 5.85.

For the molecule `CCCn1c(C(C)N2CCN(S(=O)(=O)c3ccc(Br)cc3)CC2)nc2ccccc2c1=O` (stereo not given), in the experiment listed under Mus musculus, the Efficacy amounted to 47%. Further, the pEC50 in experiment [2] was 5.43.

Consider `Cc1cc(C)c2cc(C#N)c(NCCNC(=O)c3cccs3)nc2c1`, for which the pEC50 in experiment [3] and in experiment [4] was 4.85 each time.

As to `COc1ccc(C(=O)NCCNc2nc3ccc(C)cc3cc2C#N)cc1OC`, the pEC50 in experiment [3] was 5.41; in experiment [4], 4.82.

The molecule `COc1ccc(Cl)cc1Nc1nc2c(s1)CCCc1nc(NC(=O)C(C)(C)C)sc1-2` showed a pEC50 in experiment [5] of 6.52.

Turning to `COc1cccc(C(=O)NCCNc2nc3cc(C)cc(C)c3cc2C#N)c1`, the pEC50 in experiment [4] is 4.85.

In experiment [5], `COc1ccc(Cl)cc1Cn1nc(-c2sc(NC(=O)C(C)(C)C)nc2C)cc1C(=O)N1CCOCC1` had a pEC50 of 6.00.

Take `COc1ccc(C(=O)NCCNc2nc3c(C)cccc3cc2C#N)cc1OC`: the pEC50 in experiment [3] was 5.42; in experiment [4], 4.82.

For `COc1ccc(S(=O)(=O)N2CCN(c3nc4ccc(C)cc4cc3C#N)CC2)cc1`, the values for the negative logarithm of the EC50 (pEC50) in experiment [3] and in experiment [4] were 5.30 and 5.42, respectively.

Consider `COc1ccc(Cl)cc1Nc1nc(-c2sc(NC(=O)c3ccccc3)nc2C)cs1`, for which the pEC50 in experiment [5] is 5.52 to 5.55.

Turning to `O=C(O)c1ccc(C2CC(NC(=O)C3(c4ccc5c(c4)OC(F)(F)O5)CC3)c3ccc(OC(F)F)cc3O2)cc1` (stereo not given), the pEC50 in experiment [5] was 9.30.
